Results published in PMC7343746, “(2S, 4R)-4-[^18F]Fluoroglutamine for In vivo PET Imaging of Glioma Xenografts in Mice: an Evaluation of Multiple Pharmacokinetic Models” (Molecular Imaging and Biology, 2020).

Key:
[1] = test system: rat BT4C glioma cells; test: Logan plot (reversible uptake model), subcutaneous model; assay type: in vivo, Foxn1^nu/nu mouse; conditions: for AB distribution volume: arterial blood input; for PC distribution volume: plasma-corrected input; for Logan DV (AB) distribution volume / Logan Ic (AB) y intercept: AB input; for Logan DV (PC) distribution volume / Logan IC (PC) y intercept: PC input
Method: (§1) Image analysis was performed using CARIMAS software published and freely distributed by the Turku PET Center (http://turkupetcentre.fi/carimas/). CT scans were used as rough anatomical reference while tumor regions of interest (ROI) were hand-drawn based upon observed spikes of radioactivity in the PET images at locations correlating with recorded tumor grafts. Control muscle ROIs were drawn on the side opposite to the tumor in the leg flank muscle (based on CT) while the blood ROI was drawn based upon heart anatomical location and observed PET image radioactivity spike during the initial 20 s of imaging in the left ventricle. Standardized uptake values (SUV) were calculated with respect to ROI volume, mean and max tumor radioactivity, total injected radioactivity dose (corrected for tail, cannula, and syringe residual radioactivity), and animal weight, and were additionally presented as tumor-to-background ratio (TBR, tumor-to-healthy brain region for intracranial gliomas and tumor-to-muscle for subcutaneous gliomas) as defined by recent glioma research literature standards. Mean and maximum TBR values were reported as ROI radioactivity per volume divided by mean background radioactivity per volume. The blood radioactivity SUV and gender-specific metabolite-corrected blood radioactivity SUV were then applied to multiple pharmacokinetic models to characterize the flux of the tracer (further described in the “Modeling” section).
(§2) Using the heart’s left ventricle ROI from the PET data as an uncorrected radioactivity level input and the bioavailable parent-tracer fraction (results: Eqs. 3 and 4 applied to the uncorrected input) as the corrected input, multiple models were investigated to characterize the tissue uptake dynamics. Two-compartment modeling and Logan, Patlak, and Yokoi plots were used to separately model the pharmacokinetics for the gliomas (both subcutaneous and orthotopic loci) and their respective control tissues (healthy muscle and healthy brain, respectively). Where indicated, means plus/minus standard deviations are reported. Difference in parameters for uncorrected versus correct and target tissue versus their respective control regions were tested with students’ paired t tests with P values lower than 0.05 being considered significant.

[2] = test system: patient-derived BT3 glioma cells; test: 2-Compartment model, orthotopic model; assay type: in vivo, BALB/cOlaHsd-Foxn1^nu mouse
Method: as §1, §2

[3] = Bone (femoral condyle) average (n = 6)
[4] = Subject A brain (control), arterial blood input
[5] = Subject A brain (control), plasma-corrected input
[6] = Subject A glioma max., arterial blood input
[7] = Subject A glioma max., plasma-corrected input
[8] = Subject A o.t. glioma, arterial blood input
[9] = Subject A o.t. glioma, plasma-corrected input
[10] = Subject B brain (control), arterial blood input
[11] = Subject B brain (control), plasma-corrected input
[12] = Subject B glioma max., arterial blood input
[13] = Subject B glioma max., plasma-corrected input
[14] = Subject B o.t. glioma, arterial blood input
[15] = Subject B o.t. glioma, plasma-corrected input

NC(=O)[C@H]([18F])C[C@H](N)C(=O)O [[^18F]FGln, (2S, 4R)-4-[^18F]fluoroglutamine]
AB distribution volume ([1]; Bone (femoral condyle) (n = 6)): 5.11 ± 2.19
PC distribution volume ([1]; Bone (femoral condyle) (n = 6)): 13.47 ± 7.70
Logan DV (AB) distribution volume [1, 3]: 5.11 ± 2.19
Logan Ic (AB) y intercept [1, 3]: -66.36 ± 26.46
Logan DV (PC) distribution volume [1, 3]: 13.47 ± 7.70
Logan IC (PC) y intercept [1, 3]: -142.79 ± 84.46
AB distribution volume ([1]; Flank muscle (n = 6)): 0.77 ± 0.13
PC distribution volume ([1]; Flank muscle (n = 6)): 1.38 ± 0.23
Logan DV (AB) distribution volume ([1]; Flank muscle average (n = 6)): 0.77 ± 0.13
Logan Ic (AB) y intercept ([1]; Flank muscle average (n = 6)): -15.28 ± 5.34
Logan DV (PC) distribution volume ([1]; Flank muscle average (n = 6)): 1.38 ± 0.23
Logan IC (PC) y intercept ([1]; Flank muscle average (n = 6)): -27.58 ± 7.76
AB distribution volume ([1]; Flank tumor (n = 6)): 1.13 ± 0.09
PC distribution volume ([1]; Flank tumor (n = 6)): 1.96 ± 0.15
Logan DV (AB) distribution volume ([1]; Flank tumor average (n = 6)): 1.13 ± 0.09
Logan Ic (AB) y intercept ([1]; Flank tumor average (n = 6)): -10.31 ± 3.60
Logan DV (PC) distribution volume ([1]; Flank tumor average (n = 6)): 1.96 ± 0.15
Logan IC (PC) y intercept ([1]; Flank tumor average (n = 6)): -19.79 ± 4.89
AB distribution volume ([1]; Neck tumor (n = 6)): 1.21 ± 0.08
PC distribution volume ([1]; Neck tumor (n = 6)): 2.08 ± 0.13
Logan DV (AB) distribution volume ([1]; Neck tumor average (n = 6)): 1.21 ± 0.08
Logan Ic (AB) y intercept ([1]; Neck tumor average (n = 6)): -7.63 ± 2.79
Logan DV (PC) distribution volume ([1]; Neck tumor average (n = 6)): 2.08 ± 0.13
Logan IC (PC) y intercept ([1]; Neck tumor average (n = 6)): -16.47 ± 3.85
2-Compartment K1 [2, 4]: 0.015 mL min-1 mL-1
2-Compartment K1/k2 [2, 4]: 0.143 mL mL-1
2-Compartment Vb [2, 4]: 7.82%
2-Compartment k3 [2, 4]: 0.032 min⁻¹
2-Compartment k3*K1/k2 [2, 4]: 0.005
2-Compartment k3/(k2+k3) [2, 4]: 0.235
2-Compartment K1 [2, 5]: 0.016 mL min-1 mL-1
2-Compartment K1/k2 [2, 5]: 0.210 mL mL-1
2-Compartment Vb [2, 5]: 7.77%
2-Compartment k3 [2, 5]: 0.051 min⁻¹
2-Compartment k3*K1/k2 [2, 5]: 0.011
2-Compartment k3/(k2+k3) [2, 5]: 0.396
2-Compartment K1 [2, 6]: 0.149 mL min-1 mL-1
2-Compartment K1/k2 [2, 6]: 1.169 mL mL-1
2-Compartment Vb [2, 6]: 20%
2-Compartment k3 [2, 6]: 0.015 min⁻¹
2-Compartment k3*K1/k2 [2, 6]: 0.018
2-Compartment k3/(k2+k3) [2, 6]: 0.105
2-Compartment K1 [2, 7]: 0.156 mL min-1 mL-1
2-Compartment K1/k2 [2, 7]: 1.769 mL mL-1
2-Compartment Vb [2, 7]: 20%
2-Compartment k3 [2, 7]: 0.023 min⁻¹
2-Compartment k3*K1/k2 [2, 7]: 0.041
2-Compartment k3/(k2+k3) [2, 7]: 0.208
2-Compartment K1 [2, 8]: 0.116 mL min-1 mL-1
2-Compartment K1/k2 [2, 8]: 0.919 mL mL-1
2-Compartment Vb [2, 8]: 11.5%
2-Compartment k3 [2, 8]: 0.018 min⁻¹
2-Compartment k3*K1/k2 [2, 8]: 0.016
2-Compartment k3/(k2+k3) [2, 8]: 0.122
2-Compartment K1 [2, 9]: 0.123 mL min-1 mL-1
2-Compartment K1/k2 [2, 9]: 1.373 mL mL-1
2-Compartment Vb [2, 9]: 11.6%
2-Compartment k3 [2, 9]: 0.027 min⁻¹
2-Compartment k3*K1/k2 [2, 9]: 0.038
2-Compartment k3/(k2+k3) [2, 9]: 0.234
2-Compartment K1 [2, 10]: 0.017 mL min-1 mL-1
2-Compartment K1/k2 [2, 10]: 0.127 mL mL-1
2-Compartment Vb [2, 10]: 5.5%
2-Compartment k3 [2, 10]: 0.031 min⁻¹
2-Compartment k3*K1/k2 [2, 10]: 0.004
2-Compartment k3/(k2+k3) [2, 10]: 0.186
2-Compartment K1 [2, 11]: 0.018 mL min-1 mL-1
2-Compartment K1/k2 [2, 11]: 0.168 mL mL-1
2-Compartment Vb [2, 11]: 5.52%
2-Compartment k3 [2, 11]: 0.051 min⁻¹
2-Compartment k3*K1/k2 [2, 11]: 0.009
2-Compartment k3/(k2+k3) [2, 11]: 0.318
2-Compartment K1 [2, 12]: 0.102 mL min-1 mL-1
2-Compartment K1/k2 [2, 12]: 0.447 mL mL-1
2-Compartment Vb [2, 12]: 13.3%
2-Compartment k3 [2, 12]: 0.036 min⁻¹
2-Compartment k3*K1/k2 [2, 12]: 0.016
2-Compartment k3/(k2+k3) [2, 12]: 0.137
2-Compartment K1 [2, 13]: 0.111 mL min-1 mL-1
2-Compartment K1/k2 [2, 13]: 0.515 mL mL-1
2-Compartment Vb [2, 13]: 13.4%
2-Compartment k3 [2, 13]: 0.062 min⁻¹
2-Compartment k3*K1/k2 [2, 13]: 0.032
2-Compartment k3/(k2+k3) [2, 13]: 0.224
2-Compartment K1 [2, 14]: 0.061 mL min-1 mL-1
2-Compartment K1/k2 [2, 14]: 0.536 mL mL-1
2-Compartment Vb [2, 14]: 10.2%
2-Compartment k3 [2, 14]: 0.020 min⁻¹
2-Compartment k3*K1/k2 [2, 14]: 0.011
2-Compartment k3/(k2+k3) [2, 14]: 0.150
2-Compartment K1 [2, 15]: 0.063 mL min-1 mL-1
2-Compartment K1/k2 [2, 15]: 0.767 mL mL-1
2-Compartment Vb [2, 15]: 10.5%
2-Compartment k3 [2, 15]: 0.032 min⁻¹
2-Compartment k3*K1/k2 [2, 15]: 0.025
2-Compartment k3/(k2+k3) [2, 15]: 0.280
